Measurements as given in PMC5064002, “Sintokamide A Is a Novel Antagonist of Androgen Receptor That Uniquely Binds Activation Function-1 in Its Amino-terminal Domain” (The Journal of Biological Chemistry, 2016).

How the values were obtained:
[1] = molecular target: T1, progesterone receptor (PR)-β (Homo sapiens, UniProt P06401); experiment: Steroid receptor specificity: PRE-luciferase reporter in LNCaP cells; type: cell-based; settings: 10 μM compound, 10 nM 4-pregnene-3,20-dione, 48 h
T1 construct: expressed in transfected cells; host or cells: LNCaP
T1 sequence (P06401 1-933): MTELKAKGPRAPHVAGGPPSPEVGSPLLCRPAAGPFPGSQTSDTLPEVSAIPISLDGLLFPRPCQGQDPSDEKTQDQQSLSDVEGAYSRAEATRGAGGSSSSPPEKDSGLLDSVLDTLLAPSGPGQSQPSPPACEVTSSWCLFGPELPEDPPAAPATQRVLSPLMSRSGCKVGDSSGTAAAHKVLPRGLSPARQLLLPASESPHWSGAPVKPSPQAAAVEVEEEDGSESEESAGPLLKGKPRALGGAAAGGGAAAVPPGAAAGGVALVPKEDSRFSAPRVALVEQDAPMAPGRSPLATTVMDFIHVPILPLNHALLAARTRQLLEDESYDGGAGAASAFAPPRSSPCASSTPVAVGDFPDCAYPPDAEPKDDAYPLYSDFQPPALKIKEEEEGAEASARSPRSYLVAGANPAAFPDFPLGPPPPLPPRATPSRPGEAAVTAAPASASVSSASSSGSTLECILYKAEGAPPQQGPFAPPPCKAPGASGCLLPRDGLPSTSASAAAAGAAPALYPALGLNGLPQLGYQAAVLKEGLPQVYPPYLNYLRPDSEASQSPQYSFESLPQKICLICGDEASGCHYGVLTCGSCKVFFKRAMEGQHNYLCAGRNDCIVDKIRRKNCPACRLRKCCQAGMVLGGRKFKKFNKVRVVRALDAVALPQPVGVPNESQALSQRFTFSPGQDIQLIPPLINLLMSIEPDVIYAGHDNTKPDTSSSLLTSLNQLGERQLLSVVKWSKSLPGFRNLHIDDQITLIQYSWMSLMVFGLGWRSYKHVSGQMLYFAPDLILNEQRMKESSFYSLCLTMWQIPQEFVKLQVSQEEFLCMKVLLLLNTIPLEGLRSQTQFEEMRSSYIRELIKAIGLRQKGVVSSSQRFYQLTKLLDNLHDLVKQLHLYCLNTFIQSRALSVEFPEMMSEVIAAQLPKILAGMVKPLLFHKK
Description: (§1) LNCaP cells were transfected with the reporter plasmid PSA(6.1kb)-luciferase, PRE-luciferase, or GRE-luciferase and expression vector for progesterone receptor (PR)-β or glucocorticoid receptor (GR)-α in serum-free, phenol red-free medium using Lipofectin (Invitrogen). […] After 48 h of treatment, cells were lysed and analyzed for luciferase activities.
(§2) FIGURE 1. […] A, LNCaP cells were transfected with PSA (6.1 kb)-luciferase, PRE-luciferase, or GRE-luciferase reporters and expression vector for PRβ or GRα. […] Error bars represent mean percentage of vehicle activity ±S.E. of at least three independent experiments with triplicate wells. SINT1, 10 μM; […]; ***, p < 0.001. […]. Error bars represents mean ± S.E. of three technical replicates. […] DAPI staining indicates the location of the nucleus. Scale bars, 20 μm.

[2] = molecular target: T2, glucocorticoid receptor (GR)-α (Homo sapiens, UniProt P04150); experiment: Steroid receptor specificity: GRE-luciferase reporter in LNCaP cells; type: cell-based; settings: 10 μM compound, 10 nM dexamethasone, 48 h
T2 construct: expressed in transfected cells; host or cells: LNCaP
T2 sequence (P04150 1-777): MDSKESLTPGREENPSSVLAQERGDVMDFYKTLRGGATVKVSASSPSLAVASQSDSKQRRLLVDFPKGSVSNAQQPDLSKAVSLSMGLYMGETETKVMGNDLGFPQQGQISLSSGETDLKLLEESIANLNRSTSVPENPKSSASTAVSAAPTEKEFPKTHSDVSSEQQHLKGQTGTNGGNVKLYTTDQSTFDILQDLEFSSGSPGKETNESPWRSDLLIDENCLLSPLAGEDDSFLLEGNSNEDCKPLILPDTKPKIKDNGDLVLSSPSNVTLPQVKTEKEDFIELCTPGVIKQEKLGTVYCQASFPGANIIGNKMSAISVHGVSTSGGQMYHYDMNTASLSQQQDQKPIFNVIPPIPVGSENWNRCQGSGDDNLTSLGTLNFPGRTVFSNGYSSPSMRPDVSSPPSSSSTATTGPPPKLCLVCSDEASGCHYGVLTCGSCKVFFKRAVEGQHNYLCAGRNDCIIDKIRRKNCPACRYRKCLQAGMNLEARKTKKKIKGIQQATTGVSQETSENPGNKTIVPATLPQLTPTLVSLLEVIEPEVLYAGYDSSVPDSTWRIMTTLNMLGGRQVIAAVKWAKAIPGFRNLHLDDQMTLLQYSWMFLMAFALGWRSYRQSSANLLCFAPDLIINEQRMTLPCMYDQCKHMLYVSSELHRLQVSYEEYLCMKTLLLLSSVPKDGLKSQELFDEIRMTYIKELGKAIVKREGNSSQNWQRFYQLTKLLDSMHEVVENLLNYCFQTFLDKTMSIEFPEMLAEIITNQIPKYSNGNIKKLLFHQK
Description: as §1, §2

LNCaP xenografts = experiment: LNCaP CRPC xenografts in castrated mice; type: in vivo, NOD-SCID mice
Description: Male NOD-SCID mice bearing subcutaneous LNCaP or LNCaP95 tumors were castrated when the tumor volume reached ∼100 mm^3. Seven days after castration, animals were injected intratumorally with 30 mg/kg of body weight SINT1 or a matching volume of vehicle (DMSO) every 3 days for a total of 15 days. Animal behavior and body weight were observed throughout the study period for signs of toxicity. Tumor volumes were calculated by the formula length × width × height × 0.5236. Tumors were excised 3 days after the last injection and prepared for immunohistochemistry or gene expression.
Xenograft sections were stained with hematoxylin and eosin and for Ki67 expression by Wax it Histology Inc. Cells that were positive for Ki67 were counted in sections from three xenografts for each treatment. For PSA and AR staining, dewaxed sections were microwaved for 10 min on full power in prewarmed Antigen Unmasking Solution (pH 6; Vector Laboratories, Inc.). The endogenous peroxidase activity was blocked by incubation in 3% H2O2 for 10 min followed by incubation in Clear Vision Histostaining Blocking Solution (UniCure Lab, Inc.) for 1 h at room temperature. Sections were incubated with AR-N20 (1:500 dilution) and PSA (1:5 dilution; overnight at 4 °C) primary antibodies. Samples were then incubated for 30 min at room temperature with secondary antibodies and mounted in Permount mounting medium (SP15–100, Fisher).

With `CCC(=O)NC(CC(C)C(Cl)(Cl)Cl)C(=O)N1C(=O)C=C(OC)C1CC(C)C(Cl)Cl` (stereo not shown) [SINT1, Sintokamide A] the “PR transcriptional activity (PRE-luciferase)” value [1] was “did not affect”, the “GR transcriptional activity (GRE-luciferase)” value [2] was “did not affect” and the “CRPC tumor overall growth” value (LNCaP xenografts; castrated mice, 30 mg/kg intratumorally every 3 days, five doses, n = 8, p = 0.0495) was 112 ± 13%. The “animals achieving a serum PSA drop of ≥50%” value (LNCaP xenografts; day 15 vs day of first dose) was “six”, the “number of Ki67-positive cells in harvested xenografts” value (LNCaP xenografts; immunohistochemistry) was “reduced” and the “levels of PSA in xenografts” value (LNCaP xenografts; immunohistochemistry, vs vehicle control) was “marked decreases”. The “levels and cellular localization of AR protein in xenografts” value (LNCaP xenografts; immunohistochemistry, vs vehicle-treated) was “similar”.
